Measurements published in article PMC6290340, “Discovery of Antiamebic Compounds That Inhibit Cysteine Synthase From the Enteric Parasitic Protist Entamoeba histolytica by Screening of Microbial Secondary Metabolites” (Frontiers in Cellular and Infection Microbiology, 2018).
Read-outs that look alike come from different tables or passages of the source.

Tests used:
[1] = biological target: E. histolytica CS3 (Entamoeba histolytica, UniProt Q401L7); assay: CS inhibitory activity, recombinant CS3; format: biochemical
Sequence of E. histolytica CS3 (Q401L7 entry or part of it): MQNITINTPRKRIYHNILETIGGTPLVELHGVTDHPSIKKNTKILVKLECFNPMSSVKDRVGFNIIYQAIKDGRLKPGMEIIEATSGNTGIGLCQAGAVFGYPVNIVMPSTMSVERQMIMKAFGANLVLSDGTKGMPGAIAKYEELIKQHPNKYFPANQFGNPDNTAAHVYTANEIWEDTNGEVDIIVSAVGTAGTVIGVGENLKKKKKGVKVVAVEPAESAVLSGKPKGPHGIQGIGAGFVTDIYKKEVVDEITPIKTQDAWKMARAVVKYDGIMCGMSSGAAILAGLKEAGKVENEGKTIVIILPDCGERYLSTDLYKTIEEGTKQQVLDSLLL

[2] = biological target: E. histolytica CS1 (Entamoeba histolytica, UniProt O15570); assay: CS inhibitory activity, recombinant CS1; format: biochemical
Sequence of E. histolytica CS1 (O15570 entry or part of it): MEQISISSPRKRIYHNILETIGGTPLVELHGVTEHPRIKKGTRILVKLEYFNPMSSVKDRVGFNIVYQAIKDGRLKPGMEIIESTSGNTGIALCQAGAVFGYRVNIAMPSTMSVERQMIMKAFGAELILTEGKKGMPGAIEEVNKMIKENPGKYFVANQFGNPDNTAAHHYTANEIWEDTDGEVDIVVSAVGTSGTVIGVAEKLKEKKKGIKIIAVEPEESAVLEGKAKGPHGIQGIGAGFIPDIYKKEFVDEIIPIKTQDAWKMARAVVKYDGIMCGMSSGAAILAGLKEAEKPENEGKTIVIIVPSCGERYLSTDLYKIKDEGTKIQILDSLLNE
Method: Pencolide (5.5 mg) was dissolved in 1 ml of 0.25 M L-cysteine aqueous solution (L-cysteine HCl salt in H2O) and left at room temperature for overnight. The reaction mixture was purified by Seppak ODS (Waters co., Massachusetts, USA) and the cysteine adducts were eluted with 30%MeCN-70%H2O containing 0.1%TFA. The obtained fraction was further purified by preparative HPLC (column, Senshupak Pegasil ODS SP100, 20 φ × 250 mm, Senshu Scientific Co. Ltd.; solvent, 0.1%TFA-MeCN-H2O gradient system, 10–50% MeCN per 0–30 min; flow rate, 7.0 ml/min; detection, UV at 210 nm). […] The methanol solution of the obtained adducts was used for measurement of the CS1 inhibitory activity.

[3] = format: physicochemical; conditions: 9 mM L-cysteine, 37°C, 2 days
Method: After mixing well with plate mixer for 3 min, the plate was incubated at 37°C axenically with Anaeropak (Mitsubishi Chemical, Tokyo, Japan) for 2 days. The reaction mixtures were evaluated by HPLC analysis (column, Senshupak Pegasil ODS SP100, 4.6 φ × 250 mm, Senshu Scientific Co. Ltd., Japan; solvent, MeCN-H2O gradient system, 10–90% MeCN per 0–30 min; flow rate, 1.0 ml/min; detection, UV at 210 nm) and LC-ESI-MS analysis (column, Capcellcore C18, 2.1 φ × 50 mm, Osaka soda, Japan; solvent, MeCN-H2O-0.1% HCO2H gradient system, 5–100% MeCN per 0–8 min, 100%MeCN per 8–10 min; flow rate, 0.4 ml/min; ESI-MS data was obtained by JEOL JMS-T100LP, JEOL, Japan).

[4] = tested on: EhCSs; assay: EhCS inhibition, isotype not separated (both CSs / EhCS); format: biochemical, Entamoeba histolytica; conditions: cytochalasans and cerulenin at 100 μg/ml
Source text: Expression and purification of recombinant E. histolytica CS1 and CS3, and measurement of inhibitory activity against both enzymes were described previously (Mori et al., [2015]).

[5] = tested on: E. histolytica trophozoites; assay: In vitro antiamebic activity (WST-1), L-cysteine-deprived or L-cysteine-supplemented BI-S-33 medium; format: cell-based, Entamoeba histolytica; conditions: for Anti-amebic activity ED50 Cys (+): L-cysteine (9 mM) supplemented BI-S-33 medium; for Anti-amebic activity ED50 Cys (+) / Anti-amebic activity ED50 Cys (–): 48 hrs; for Anti-amebic activity ED50 Cys (–): L-cysteine-deprived BI-S-33 medium; for IC50: Entamoeba histolytica; for Anti-amebic activity Selectivity Cys(+)/Cys(–): ED50 Cys(+)/ED50 Cys(–), cysteine dependence index
Method: Trophozoites were harvested in a logarithmic growth phase 3 or 4 days after inoculation of 1/30–1/12 volume of the seed culture. After the cultures were chilled on ice for 5 min, trophozoites were collected by centrifugation at 500 × g for 10 min at 4°C. The trophozoites were resuspended in BI-S-33 medium containing 1% (v/v) penicillin/streptomycin (Life Technologies, Grand Islands, NY, U.S.A.), with a final concentration of 5 × 10^4 cells/ml. […] The plates were incubated under anaerobic conditions with Anaeropak for 48 hrs. After incubation, the medium was removed and 90 μl of pre-warmed Opti-MEM I (Life Technologies) and 10 μl of WST-1 solution (Dojindo, Kumamoto, Japan) were added to each well. Optical absorbance at 450 nm was measured on a photospectrometer (SH-9000Lab, Corona Electric, Ibaraki, Japan). Metronidazole (Sigma-Aldrich, MO, USA) was used as positive control. Antiamebic assays were done in triplicate. […] The cysteine dependence of the antiamebic activities was calculated as ED 50Cys(+) /ED 50Cys(-) and expressed as “cysteine dependence index.”
Approximately 2 μl of the compound solution (1 mg/ml, in DMSO) of the Kitasato Natural Products Library or 10 μl of EtOH extracts of microbial culture broth extracts was added to each well of E. histolytica trophozoite-seeded 96-well microtiter plates (final concentrations, 10 μg/ml). Compounds showing more than 80% growth inhibition and having no cytotoxicity against MRC-5 cells were selected for further evaluation.

[6] = Cytotoxicity against MRC-5 cells (WST-8); format: cell-based, Human; conditions: human, MRC-5 fibroblast cells; 2 days
Method: (§1) Human fibroblast cell line, MRC-5, was used for cytotoxicity evaluation. MRC-5 cells were plated on 96-well flat bottom plates at a density of 1.5 × 10^4 cells/well in 100 μl of MEM medium each well (Life Technologies) containing 10% fetal bovine serum (Hana-nesco Bio, Tokyo, Japan) and 1% penicillin-streptomycin (Life Technologies) and incubated at 37°C with 5% CO2 for 2 days. Test compounds in 5 μl of 50% DMSO and 50% H2O and 100 μl of MEM medium were mixed and added to each well. After cultivation at 37°C with 5% CO2 for 2 days, cell density and morphological changes were observed under a microscope. After observation, 10 μl of WST-8 solution (Dojindo) was added to the cells and the plate was incubated at 37°C with 5% CO2 for 2 h. Then, absorbance at 450 nm was measured as above. Cytotoxicity against MRC-5 cells was measured in triplicate. ED50 values were calculated as previously described (Arita-Morioka et al., [2015]).

[7] = tested on: MRC-5 cells; assay: Cytotoxicity against MRC-5 cells (WST-8); format: cell-based, Human; conditions: MRC-5 relative to E. histolytica in Cys (–)
Method: as §1

[8] = tested on: E. histolytica trophozoites; assay: In vitro antiamebic activity (WST-1), L-cysteine-deprived or L-cysteine-supplemented BI-S-33 medium; format: cell-based, Entamoeba histolytica; conditions: Cys (–) medium, 2.5 mM pencolide
[9] = tested on: E. histolytica trophozoites; design: method as in Mori et al., 2015; conditions: ref Mori et al., 2015, cited from earlier work
[10] = tested on: MRC-5 cells; design: method as in Mori et al., 2015; conditions: strong cytotoxicity, times higher, ref Mori et al., 2015; cited from earlier work
[11] = tested on: EhCSs; design: method as in Mori et al., 2015; conditions: previous enzymatic screening, ref Mori et al., 2015; read-out: IC50 value against CSs; cited from earlier work
[12] = read-out: CS inhibitory activity IC50 CS3 (converted)
[13] = read-out: CS inhibitory activity IC50 CS1 (converted)

Compound | IC50 [1] | IC50 [2] | Stability in cysteine-supplemented water (HPLC) [3] | Anti-amebic activity ED50 Cys (+) [5] | Anti-amebic activity ED50 Cys (–) [5] | Anti-amebic activity Selectivity Cys(+)/Cys(–) [5] | other results
C/C=C/C/C=C/CCC(=O)[C@H]1O[C@H]1C(N)=O [Cerulenin, reference compound] | > 448 µM | > 448 µM | relatively stable | 8.2 µg/mL | 1.1 µg/mL |  | Inhibitory activity toward both CS1 and CS3 (in words) [4]: neither three cytochalasans nor cerulenin showed the inhibitory activity
C/C=C(\C(=O)O)N1C(=O)C=C(C)C1=O [Pencolide] |  |  | most of pencolide was changed to the cysteine adducts |  |  |  | IC50 [1, 12]: 217 ± 25 µM; IC50 [2, 13]: 233 ± 19 µM; IC50 at 2 days [6]: 1900 µM; Selectivity MRC-5/Cys (–) (selectivity index) [7]: 6.7; Selectivity Cys (+)/Cys (–) (cysteine dependence index) [5]: 7.6; IC50 ([5]; Cys (+) medium, read-out: Cytotoxicity IC50 Against Entamoeba histolytica in Cys (+)): 2140 µM; IC50 ([5]; Cys (–) medium, read-out: Cytotoxicity IC50 Against Entamoeba histolytica in Cys (–)): 283 ± 44 µM; Cell morphology under a light microscope [8]: apoptosis-like cell death
CC(=O)c1c(C)c(/C(O)=C2\COc3cc(O)c(O)c(C(=O)O)c3C2=O)cc2c(=O)c3c(C(=O)O)c(O)c(O)cc3oc12 [xanthofulvin] |  |  |  |  |  |  | Antiamebic activity in vitro [9]: did not show the antiamebic activity
deacetylkinamycin C |  |  |  |  |  |  | Cytotoxicity against MRC-5 cells relative to antiamebic/CS activity [10]: > 10 times; ED50 value against amebic trophozoites ([9]; previous study): ca. 20 μM; IC50 [11]: ~20 µM
C/C1=C\[C@@H](C)C/C=C/[C@H]2[C@@H]3O[C@]3(C)[C@@H](C)[C@H]3[C@H](Cc4c[nH]c5ccccc45)NC(=O)[C@]32C(=O)/C=C/C(=O)[C@@H]1O [Chaetoglobosin A] | > 189 µM | > 189 µM | totally lost | >50 µg/mL | 1.0 µg/mL | >50 | 
CCC[C@H]1O[C@H](CC(=O)O)CC2=C1C(=O)c1c(O)cccc1C2=O [Deoxyfrenolicin] |  |  |  | 3.9 µg/mL | 1.7 µg/mL | 2 | IC50 [1, 12]: 75.7 µM; IC50 [2, 13]: 72.7 µM; Inhibitory activity toward both CS1 and CS3 (in words) [4]: mild inhibition
CC1=CC2C=C(C)C(C)C3C(CC(C)C)NC(=O)C23C(=O)C=CC(=O)C(O)CC1 (stereo not shown) [Aspochalasin B] | > 250 µM | > 250 µM |  | 27 µg/mL | 9.6 µg/mL | 3 | 
CCCCCCCCCc1cc(OC(=O)c2c(CCCCCCCCC)cc(O)cc2OC2OC(CO)C(O)C(O)C2O)cc(O)c1C(=O)O (stereo not shown) [exophillic acid] |  |  |  |  |  |  | Antiamebic activity in vitro [9]: did not show the antiamebic activity
CC1=CC(C)CC=CC2C3OC3(C)C(C)C3C(Cc4c[nH]c5ccccc45)NC(=O)C23C(=O)C=CC(=O)C1 (stereo not shown) [Prochaetoglobosin III] | > 195 µM | > 195 µM | totally lost | 44 µg/mL | 2.6 µg/mL | 17 | 
